This is an account of results in US20240218022A1, “ANTI-VISTA MACROCYCLIC PEPTIDES AND COMPOSITIONS” (BRISTOL-MYERS SQUIBB COMPANY, priority 2022, published 2024).

Positions of bridges follow the written chain, without caps; N, C: chain ends. Non-standard residues stand in square brackets, D forms with d. Residues, ends and D or L forms follow the SMILES beside them. ξ: configuration not given here. Cit = NC(=O)NCCC[C@H](N)C(=O)O; Gly(cPr) = N[C@H](C(=O)O)C1CC1; Ile(3ξ) = CCC(C)[C@H](N)C(=O)O; Ahp(2) = CCCCC[C@H](N)C(=O)O; NMeNle = CCCC[C@H](NC)C(=O)O; Tle = CC(C)(C)[C@H](N)C(=O)O; NHexGly = CCCCCCNCC(=O)O; Nle = CCCC[C@H](N)C(=O)O; Orn = NCCC[C@H](N)C(=O)O

The target in the test is T1, mouse VISTA (mVISTA) (Mus musculus, UniProt Q9D659).
T1 construct: expressed in transfected cells; host or cells: Human embryonic kidney 293T cells
T1 sequence (Q9D659 33-308): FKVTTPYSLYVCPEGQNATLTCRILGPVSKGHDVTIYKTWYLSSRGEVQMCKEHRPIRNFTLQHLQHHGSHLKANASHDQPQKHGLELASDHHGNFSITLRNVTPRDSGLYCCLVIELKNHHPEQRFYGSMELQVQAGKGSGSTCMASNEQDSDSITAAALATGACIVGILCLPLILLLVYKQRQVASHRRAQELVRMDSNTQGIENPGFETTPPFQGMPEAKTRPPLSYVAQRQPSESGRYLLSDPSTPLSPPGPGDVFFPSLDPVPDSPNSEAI
In words: Cell-Based Binding High-Content Assay For mVISTA (HC CBA mVISTA). To be noted: read-out: HC CBA mVISTA IC50. The method in brief: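 Read-out: Alexa 647–streptavidin signal imaged on fixed, Hoechst-stained mVISTA-293T cells, with IC50 taken from a four-parameter logistic curve. Compounds competed with 2 nM biotinylated peptide for 30 min at room temperature, tested under both no-wash and wash (1 h compound, media exchange, 1 h) formats.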
The term IC50 denotes the concentration at which inhibition is half-maximal. With `CCCCCCN1CC(=O)N[C@@H](Cc2ccc(O)cc2)C(=O)N[C@@H](CCCC)C(=O)N[C@@H](CC(N)=O)C(=O)N[C@@H](CCCNC(N)=O)C(=O)N(C)[C@@H](CCCC)C(=O)N[C@@H](CCCCC)C(=O)N2CCC[C@H]2C(=O)N[C@@H](C(C)CC)C(=O)N[C@@H](CO)C(=O)N[C@H](C(=O)NCC(N)=O)CSCC(=O)N[C@@H](Cc2ccccc2)C(=O)N[C@@H](Cc2c[nH]c3ccccc23)C(=O)N[C@@H](CC(=O)O)C1=O` (stereo partly drawn) [Example 1388] ({CH2CO}-FWD[NHexGly]Y[Nle]N[Cit][NMeNle][Ahp(2)]P[Ile(3ξ)]SCG-NH2; thioether N-14), the 50% inhibitory concentration (IC50) stood at 16.4 nM.
Regarding `CCCCCCN1CC(=O)N[C@@H](Cc2ccc(O)cc2)C(=O)N[C@@H](CCCC)C(=O)N[C@@H](CC(N)=O)C(=O)N[C@@H](CCCNC(=N)N)C(=O)N(C)[C@@H](CCCC)C(=O)N[C@@H](CCCCC)C(=O)N2CCC[C@H]2C(=O)N[C@@H](C2CC2)C(=O)N[C@@H](CO)C(=O)N[C@H](C(=O)NCC(N)=O)CSCC(=O)N[C@@H](Cc2ccccc2)C(=O)N[C@@H](Cc2c[nH]c3ccccc23)C(=O)N[C@@H](CC(=O)O)C1=O` [Example 1389] ({CH2CO}-FWD[NHexGly]Y[Nle]NR[NMeNle][Ahp(2)]P[Gly(cPr)]SCG-NH2; thioether N-14), the IC50 was 34.4 nM.
In the case of `CCCCCCN1CC(=O)N[C@@H](Cc2ccc(O)cc2)C(=O)N[C@@H](CCCC)C(=O)N[C@@H](CC(N)=O)C(=O)N[C@@H](CCCNC(N)=O)C(=O)N(C)[C@@H](CCCC)C(=O)N[C@@H](CCCCC)C(=O)N2CCC[C@H]2C(=O)N[C@@H](C(C)(C)C)C(=O)N[C@@H](CO)C(=O)N[C@H](C(=O)NCC(N)=O)CSCC(=O)N[C@@H](Cc2ccccc2)C(=O)N[C@@H](Cc2c[nH]c3ccccc23)C(=O)N[C@@H](CC(=O)O)C1=O` [Example 1390] ({CH2CO}-FWD[NHexGly]Y[Nle]N[Cit][NMeNle][Ahp(2)]P[Tle]SCG-NH2; thioether N-14), the IC50 came to 25.2 nM.
As for `CCCCCCN1CC(=O)N[C@@H](Cc2ccc(O)cc2)C(=O)N[C@@H](CCCC)C(=O)N[C@@H](CC(N)=O)C(=O)N[C@@H](CCCNC(=N)N)C(=O)N(C)[C@@H](CCCC)C(=O)N[C@@H](CCCCC)C(=O)N2CCC[C@H]2C(=O)N[C@@H](C(C)(C)C)C(=O)N[C@@H](CO)C(=O)N[C@H](C(=O)NCC(N)=O)CSCC(=O)N[C@@H](Cc2ccccc2)C(=O)N[C@@H](Cc2c[nH]c3ccccc23)C(=O)N[C@@H](CC(=O)O)C1=O` [Example 1391] ({CH2CO}-FWD[NHexGly]Y[Nle]NR[NMeNle][Ahp(2)]P[Tle]SCG-NH2; thioether N-14), the IC50 turned out to be 36.3 nM.
The result for `CCCCCCN1CC(=O)N[C@@H](Cc2ccc(O)cc2)C(=O)N[C@@H](CCCC)C(=O)N[C@@H](CC(=O)O)C(=O)N[C@@H](CCCNC(=N)N)C(=O)N(C)[C@@H](CCCC)C(=O)N[C@@H](CCCCC)C(=O)N2CCC[C@H]2C(=O)N[C@@H](C(C)(C)C)C(=O)N[C@@H](CC(=O)O)C(=O)N[C@H](C(=O)NCC(N)=O)CSCC(=O)N[C@@H](Cc2ccccc2)C(=O)N[C@@H](Cc2c[nH]c3ccccc23)C(=O)N[C@@H](CC(=O)O)C1=O` [Example 1392] ({CH2CO}-FWD[NHexGly]Y[Nle]DR[NMeNle][Ahp(2)]P[Tle]DCG-NH2; thioether N-14) reads 38.3 nM; that for `CCCCCCN1CC(=O)N[C@@H](Cc2ccc(O)cc2)C(=O)N[C@@H](CCCC)C(=O)N[C@@H](CC(=O)O)C(=O)N[C@@H](CCCN)C(=O)N(C)[C@@H](CCCC)C(=O)N[C@@H](CCCCC)C(=O)N2CCC[C@H]2C(=O)N[C@@H](C(C)(C)C)C(=O)N[C@@H](CC(=O)O)C(=O)N[C@H](C(=O)NCC(N)=O)CSCC(=O)N[C@@H](Cc2ccccc2)C(=O)N[C@@H](Cc2c[nH]c3ccccc23)C(=O)N[C@@H](CC(=O)O)C1=O` [Example 1393] ({CH2CO}-FWD[NHexGly]Y[Nle]D[Orn][NMeNle][Ahp(2)]P[Tle]DCG-NH2; thioether N-14), 17.2 nM; that for `CCCCCCN1CC(=O)N[C@@H](Cc2ccc(O)cc2)C(=O)N[C@@H](CCCC)C(=O)N[C@@H](CC(N)=O)C(=O)N[C@@H](CCCN)C(=O)N(C)[C@@H](CCCC)C(=O)N[C@@H](CCCCC)C(=O)N2CCC[C@H]2C(=O)N[C@@H](C(C)(C)C)C(=O)N[C@@H](CC(=O)O)C(=O)N[C@H](C(=O)NCC(N)=O)CSCC(=O)N[C@@H](Cc2ccccc2)C(=O)N[C@@H](Cc2c[nH]c3ccccc23)C(=O)N[C@@H](CC(=O)O)C1=O` [Example 1394] ({CH2CO}-FWD[NHexGly]Y[Nle]N[Orn][NMeNle][Ahp(2)]P[Tle]DCG-NH2; thioether N-14), 34.8 nM.
Take `CCCCCCN1CC(=O)N[C@@H](Cc2ccc(O)cc2)C(=O)N[C@@H](CCCC)C(=O)N[C@@H](CC(=O)O)C(=O)N[C@@H](CCCNC(=N)N)C(=O)N(C)[C@@H](CCCC)C(=O)N[C@@H](CCCCC)C(=O)N2CCC[C@H]2C(=O)N[C@@H](C(C)(C)C)C(=O)N[C@@H](CO)C(=O)N[C@H](C(=O)NCC(N)=O)CSCC(=O)N[C@@H](Cc2ccccc2)C(=O)N[C@@H](Cc2c[nH]c3ccccc23)C(=O)N[C@@H](CC(=O)O)C1=O` [Example 1395] ({CH2CO}-FWD[NHexGly]Y[Nle]DR[NMeNle][Ahp(2)]P[Tle]SCG-NH2; thioether N-14): the IC50 is 48.6 nM.
Next, `CCCCCCN1CC(=O)N[C@@H](Cc2ccc(O)cc2)C(=O)N[C@@H](CCCC)C(=O)N[C@@H](CC(N)=O)C(=O)N[C@@H](CCCNC(=N)N)C(=O)N(C)[C@@H](CCCC)C(=O)N[C@@H](CCCCC)C(=O)N2CCC[C@H]2C(=O)N[C@@H](C(C)(C)C)C(=O)N[C@@H](CC(=O)O)C(=O)N[C@H](C(=O)NCC(N)=O)CSCC(=O)N[C@@H](Cc2ccccc2)C(=O)N[C@@H](Cc2c[nH]c3ccccc23)C(=O)N[C@@H](CC(=O)O)C1=O` [Example 1396] ({CH2CO}-FWD[NHexGly]Y[Nle]NR[NMeNle][Ahp(2)]P[Tle]DCG-NH2; thioether N-14): 26.8 nM; `CCCCCCN1CC(=O)N[C@@H](Cc2ccc(O)cc2)C(=O)N[C@@H](CCCC)C(=O)N[C@@H](CC(=O)O)C(=O)N[C@@H](CCCN)C(=O)N(C)[C@@H](CCCC)C(=O)N[C@@H](CCCCC)C(=O)N2CCC[C@H]2C(=O)N[C@@H](C(C)(C)C)C(=O)N[C@@H](CC(=O)O)C(=O)N[C@H](C(=O)N[C@@H](CC(N)=O)C(=O)O)CSCC(=O)N[C@@H](Cc2ccccc2)C(=O)N[C@@H](Cc2c[nH]c3ccccc23)C(=O)N[C@@H](CC(=O)O)C1=O` [Example 1397] ({CH2CO}-FWD[NHexGly]Y[Nle]D[Orn][NMeNle][Ahp(2)]P[Tle]DCN-OH; thioether N-14): 36 nM.
Turning to `CCCCCCN1CC(=O)N[C@@H](Cc2ccc(O)cc2)C(=O)N[C@@H](CCCC)C(=O)N[C@@H](CC(N)=O)C(=O)N[C@@H](CCCNC(=N)N)C(=O)N(C)[C@@H](CCCC)C(=O)N[C@@H](CCCCC)C(=O)N2CCC[C@H]2C(=O)N[C@@H](C(C)(C)C)C(=O)N[C@@H](CC(=O)O)C(=O)N[C@H](C(=O)N[C@@H](CC(N)=O)C(=O)O)CSCC(=O)N[C@@H](Cc2ccccc2)C(=O)N[C@@H](Cc2c[nH]c3ccccc23)C(=O)N[C@@H](CC(=O)O)C1=O` [Example 1398] ({CH2CO}-FWD[NHexGly]Y[Nle]NR[NMeNle][Ahp(2)]P[Tle]DCN-OH; thioether N-14), the half-maximal inhibitory concentration (IC50) came to 43.9 nM.
The result for `CCCCCCN1CC(=O)N[C@@H](Cc2ccc(O)cc2)C(=O)N[C@@H](CCCC)C(=O)N[C@@H](CC(=O)O)C(=O)N[C@@H](CCCNC(=N)N)C(=O)N(C)[C@@H](CCCC)C(=O)N[C@@H](CCCCC)C(=O)N2CCC[C@H]2C(=O)N[C@@H](C(C)(C)C)C(=O)N[C@@H](CO)C(=O)N[C@H](C(=O)N[C@@H](CC(N)=O)C(=O)O)CSCC(=O)N[C@@H](Cc2ccccc2)C(=O)N[C@@H](Cc2c[nH]c3ccccc23)C(=O)N[C@@H](CC(=O)O)C1=O` [Example 1399] ({CH2CO}-FWD[NHexGly]Y[Nle]DR[NMeNle][Ahp(2)]P[Tle]SCN-OH; thioether N-14) reads 27.3 nM; that for `CCCCCCN1CC(=O)N[C@@H](Cc2ccc(O)cc2)C(=O)N[C@@H](CCCC)C(=O)N[C@@H](CC(N)=O)C(=O)N[C@@H](CCCN)C(=O)N(C)[C@@H](CCCC)C(=O)N[C@@H](CCCCC)C(=O)N2CCC[C@H]2C(=O)N[C@@H](C(C)(C)C)C(=O)N[C@@H](CO)C(=O)N[C@H](C(=O)N[C@@H](CC(N)=O)C(=O)O)CSCC(=O)N[C@@H](Cc2ccccc2)C(=O)N[C@@H](Cc2c[nH]c3ccccc23)C(=O)N[C@@H](CC(=O)O)C1=O` [Example 1400] ({CH2CO}-FWD[NHexGly]Y[Nle]N[Orn][NMeNle][Ahp(2)]P[Tle]SCN-OH; thioether N-14), 14.1 nM.
On to `CCCCCCN1CC(=O)N[C@@H](Cc2ccc(O)cc2)C(=O)N[C@@H](CCCC)C(=O)N[C@@H](CC(=O)O)C(=O)N[C@@H](CCCN)C(=O)N(C)[C@@H](CCCC)C(=O)N[C@@H](CCCCC)C(=O)N2CCC[C@H]2C(=O)N[C@@H](C(C)(C)C)C(=O)N[C@@H](CO)C(=O)N[C@H](C(=O)N[C@@H](CC(N)=O)C(=O)O)CSCC(=O)N[C@@H](Cc2ccccc2)C(=O)N[C@@H](Cc2c[nH]c3ccccc23)C(=O)N[C@@H](CC(=O)O)C1=O` [Example 1401] ({CH2CO}-FWD[NHexGly]Y[Nle]D[Orn][NMeNle][Ahp(2)]P[Tle]SCN-OH; thioether N-14), for which the IC50 was determined as 20.2 nM.
With `CCCCCCN1CC(=O)N[C@@H](Cc2ccc(O)cc2)C(=O)N[C@@H](CCCC)C(=O)N[C@@H](CC(N)=O)C(=O)N[C@@H](CCCNC(=N)N)C(=O)N(C)[C@@H](CCCC)C(=O)N[C@@H](CCCCC)C(=O)N2CCC[C@H]2C(=O)N[C@@H](C(C)(C)C)C(=O)N[C@@H](CO)C(=O)N[C@H](C(=O)N[C@@H](CC(N)=O)C(=O)O)CSCC(=O)N[C@@H](Cc2ccccc2)C(=O)N[C@@H](Cc2c[nH]c3ccccc23)C(=O)N[C@@H](CC(=O)O)C1=O` [Example 1402] ({CH2CO}-FWD[NHexGly]Y[Nle]NR[NMeNle][Ahp(2)]P[Tle]SCN-OH; thioether N-14), the half-inhibitory concentration (IC50) was 33.8 nM.
